Data published in patent publication US11465995B2, “Crystal and salt forms of tricyclic compound and preparation process thereof” (SHIJIAZHUANG SAGACITY NEW DRUG DEVELOPMENT COMPANY, LTD., priority 2018, dated 2022).
Several values for one entry are separate records, joined by “and”; a condition that tells them apart may be missing. Identical values can stand only once.

Columns and labels:
[1] = Pharmacokinetic evaluation in SD rats; format: in vivo; conditions: Sprague Dawley, rat, plasma, 3 mg/kg, male, intravenous injection and oral administration, Ozanimod at 3 mpk; for bioavailability: read-out: Bioavailability F (%); for AUC: read-out: Concentration Integration AUC; for half-life: read-out: Half-life T1/2 (converted)
Procedure: This Example is provided to test pharmacokinetics of compounds in SD rats.
Materials: Sprague Dawley rats (male, 200-300 g, 7-9 weeks, Shanghai SLAC)
Procedures: The rodent pharmacokinetic characteristics of the compound after intravenous injection and oral administration were tested according to standard protocol. In the test, the candidate compound was formulated as a clear solution, and the rats were given a single intravenous injection and oral administration. The intravenous and oral vehicles were a hydroxypropyl β cyclodextrin aqueous solution in a certain proportion or normal saline solution. The whole blood sample within 24 h was collected, centrifuged at 3000 g for 15 min, and the supernatant was separated to give the plasma sample. 4 volumes of acetonitrile solution containing internal standard was added to precipitate protein and after centrifugation the supernatant was collected and added with equal volume of water. After further centrifugation, the supernatant was used for injection. Quantitative analysis of blood drug concentration was done by LC-MS/MS analysis method and pharmacokinetic parameters were calculated, such as Cmax, Tmax, clearance, half-life, area under the curve of drug concentration-time, bioavailability, etc.

[2] = tested on: TNBS-induced acute infectious bowel disease (IBD) model; assay: Pharmacodynamic test on TNBS-induced acute infectious bowel disease (IBD) model in female SD rats; format: in vivo; set-up: Ulcer score / Inflammation score / Total injury score: scale not given here; conditions: for Injury area (cm^2) / Ulcer area (cm^2) / Inflammation score / Total injury score / Ulcer score: mean ± sem; for Inflammation score / Total injury score / Ulcer score: colon pathological test
Procedure: Female SD rats were divided into 7 groups, that is, model group, prednisolone-10 mg/kg group, Ozanimod-0.3 mg/kg group, Ozanimod-1.0 mg/kg group, Compound 1-0.1 mg/kg group, Compound 1-0.3 mg/kg group, Compound 1-0.6 mg/kg group. All animals were deeply anesthetized with pentobarbital sodium, and TNBS-50% alcohol solution was inserted into the intestinal cavity from the anus for modeling. The animal's anus was squeezed, and the animal was allowed to stand upside down for 5 min. The animals were returned to the cage after assured to be leak free.
The test compounds were administered orally 1 h after modeling, once a day for 7 days. The model group was given an equal volume of drug vehicle. The animals were weighed daily before administration of the test compound and were monitored for daily fecal traits and given clinical observation scores. The day after the last administration, all animals were euthanized. The colons were collected (anal to nodular part), the length and weight of the colons were measured, and the gross anatomical scores of the lesion sizes was taken. The gross anatomical images of the colon lesions were recorded, and the tissues were fixed in 10% neutral formalin solution and were subjected to histopathological analysis.

blood lymphocytes = assay: Effects of single oral administration on blood lymphocytes in rats; format: in vivo, SD rats; conditions: for Percentage of lymphocytes in white blood cells in a unit volume of blood (%) / Rate of change of lymphocytes in blood after administration (%): mean ± SEM
Procedure: Normal SPF grade male SD rats were administered by single oral gavage. The experiment contained five groups: the vehicle control group, the reference compound Ozanimod group, Compound 1-0.3 mg/kg dose group, Compound 1-1.0 mg/kg dose group, Compound 1-3 mg/kg dose group. Blood was collected 0.5 h before administration and 4, 8, 24 h after administration, and anticoagulated with 10% K2-EDTA. The anticoagulated blood sample was placed in 4° C. environment, diluted 1:4 with normal saline, and quickly tested with a hematology analyzer to calculate the number of lymphocytes per liter of blood and the percentage in the total white blood cells. Graphpad prism 6.0 software was used to calculate the mean±standard error, and the two-way ANOVA test was used to test the significance of the difference. When p<0.05, there was a significant difference between two groups.

S1P1 receptor = target: T1, S1P1 receptor (Homo sapiens, UniProt P21453); assay: S1P1 receptor agonistic activity test (PathHunter cell line); format: cell-based; conditions: agonist mode
T1 construct: expressed in transfected cells
Procedure: I. Cells Treatment • 1. PathHunter cell line was thawed according to standard procedures. • 2. The cells were inoculated in 20 μl 384-well microplates and incubated at 37° C. for appropriate time.
II. Agonist • 1. For the agonist assay, the cells were incubated with the testing sample to induce the reaction. • 2. The stock solution had been diluted 5 times with the buffer. • 3. 5 μl of 5-fold dilution was added into the cells, which were incubated at 37° C. for 90-180 min with the vehicle concentration of 1%.
III. Signal Detection • 1. 12.5 μl or 15 μl of PathHunter detection reagent at a volume ratio of 50% was added in one portion, then incubation at room temperature was performed for 1 h to generate detection signal. • 2. The PerkinElmer Envision™ instrument was used to read the microplate for chemiluminescence signal detection.
IV. Data Analysis • 1. CBIS data analysis kit was used to analyze the activity of the compound. • 2. Calculation formula: % Activity=100%×(average RLU of testing sample−average RLU of vehicle)/(average RLU of maximum control ligand−average RLU of vehicle) The results were shown in Table 3.

[3] = Stability test of Crystal Form A solid (accelerated, 40° C./75% humidity, open); format: physicochemical
Procedure: Crystal Form A was placed in an opening container with constant temperature and humidity for accelerated test, under the conditions of 40° C./75% humidity (open). Samples were taken at 1st, 2nd, 3rd month for testing, and the test results were compared with initial results of day 0.

[4] = 0.1 mg/kg oral once a day for 7 days
[5] = 0.3 mg/kg oral once a day for 7 days
[6] = 0.6 mg/kg oral once a day for 7 days
[7] = 1.0 mg/kg single oral, −0.5 h (before administration)
[8] = 40° C./75% humidity (Open), 1 month
[9] = 40° C./75% humidity (Open), 2 months
[10] = 40° C./75% humidity (Open), 3 months
[11] = 1.0 mg/kg oral once a day for 7 days
[12] = 10 mg/kg oral once a day for 7 days

T1 sequence (P21453 whole entry): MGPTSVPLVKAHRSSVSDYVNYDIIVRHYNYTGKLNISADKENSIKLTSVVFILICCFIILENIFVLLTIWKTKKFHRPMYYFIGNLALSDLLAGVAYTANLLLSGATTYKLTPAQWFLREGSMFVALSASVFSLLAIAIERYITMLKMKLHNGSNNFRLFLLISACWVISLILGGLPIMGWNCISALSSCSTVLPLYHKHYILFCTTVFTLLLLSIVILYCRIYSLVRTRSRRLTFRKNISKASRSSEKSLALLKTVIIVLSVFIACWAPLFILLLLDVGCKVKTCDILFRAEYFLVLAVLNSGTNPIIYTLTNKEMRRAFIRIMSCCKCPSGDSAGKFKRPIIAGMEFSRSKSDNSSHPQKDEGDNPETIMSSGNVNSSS

## CC(C)Oc1ccc(-c2nc(-c3cccc4c3C[C@@H]3CC(=O)N(CCO)[C@H]43)no2)cc1C#N (single isomer, unassigned) [Compound 1]
[1]
  clearance: 11.5 mL/min/kg
  bioavailability: 85.8%
  AUC: 6.83 µM·h
  half-life: 3.46 h
[2]; [4]
  Injury area (cm^2): 6.09 ± 0.94 cm^2
  Ulcer area (cm^2): 2.42 ± 0.66 cm^2
[2]; [5]
  Injury area (cm^2): 5.34 ± 0.90 cm^2
  Ulcer area (cm^2): 2.18 ± 0.84 cm^2
[2]; [6]
  Injury area (cm^2): 3.42 cm^2 and 3.42 ± 0.73* cm^2
  Ulcer area (cm^2): 0.94 ± 0.55 cm^2
[2]; 0.6 mg/kg, compared to the model group
  symptoms of colon ulcers and edema (dissection at the end of the experiment): reduced compared to the model group
[2]; 0.1 mg/kg
  Inflammation score: 3.57 ± 0.20
  Total injury score: 6.14 ± 0.40
  Ulcer score: 2.57 ± 0.20
[2]; 0.3 mg/kg
  Inflammation score: 3.57 ± 0.37
  Total injury score: 6.14 ± 0.63
  Ulcer score: 2.57 ± 0.30
Blood lymphocytes; 0.3 mg/kg single oral, 4 h
  Percentage of lymphocytes in white blood cells in a unit volume of blood (%): 52.08 ± 3.35^&&& %
Blood lymphocytes; 0.3 mg/kg single oral, 4 h, vs same group before administration
  Rate of change of lymphocytes in blood after administration (%): −59.57 ± 2.01 %
Blood lymphocytes; 0.3 mg/kg single oral, 8 h
  maximum decreasing rate of the number of blood lymphocytes: 66.87%
  Percentage of lymphocytes in white blood cells in a unit volume of blood (%): 46.71 ± 3.72^*#&&&& %
  Rate of change of lymphocytes in blood after administration (%): −66.87 ± 1.97 %
Blood lymphocytes; 0.3 mg/kg single oral, 24 h
  blood lymphocyte decreasing rate: −44.98%
  Percentage of lymphocytes in white blood cells in a unit volume of blood (%): 63.86 ± 1.70%
  Rate of change of lymphocytes in blood after administration (%): 44.98 ± 16.62 %
Blood lymphocytes; 0.3 mg/kg single oral, −0.5 h (before administration)
  Percentage of lymphocytes in white blood cells in a unit volume of blood (%): 59.12 ± 2.19%
Blood lymphocytes; 1.0 mg/kg single oral, 4 h
  Percentage of lymphocytes in white blood cells in a unit volume of blood (%): 36.82 ± 2.33^****$$$ %
  Rate of change of lymphocytes in blood after administration (%): −71.25 ± 1.93 %
Blood lymphocytes; 1.0 mg/kg single oral, 8 h
  maximum decreasing rate of the number of blood lymphocytes: 83.09%
  Percentage of lymphocytes in white blood cells in a unit volume of blood (%): 29.89 ± 2.56^****$$$$ %
  Rate of change of lymphocytes in blood after administration (%): −83.09 ± 1.25 %
Blood lymphocytes; 1.0 mg/kg single oral, 24 h
  blood lymphocyte decreasing rate: 0.22%
  Percentage of lymphocytes in white blood cells in a unit volume of blood (%): 61.62 ± 1.61%
  Rate of change of lymphocytes in blood after administration (%): −0.22 ± 6.87^**#$$ %
Blood lymphocytes; [7]
  Percentage of lymphocytes in white blood cells in a unit volume of blood (%): 59.49 ± 1.01%
Blood lymphocytes; 3.0 mg/kg single oral, 4 h
  Percentage of lymphocytes in white blood cells in a unit volume of blood (%): 34.03 ± 3.81^****#$$$$ %
  Rate of change of lymphocytes in blood after administration (%): −78.97 ± 0.91 %
Blood lymphocytes; 3.0 mg/kg single oral, 8 h
  maximum decreasing rate of the number of blood lymphocytes: 85.92%
  Percentage of lymphocytes in white blood cells in a unit volume of blood (%): 26.19 ± 2.81^****$$$$ %
  Rate of change of lymphocytes in blood after administration (%): −85.92 ± 1.26 %
Blood lymphocytes; 3.0 mg/kg single oral, 24 h
  blood lymphocyte decreasing rate: 55.15%
  Percentage of lymphocytes in white blood cells in a unit volume of blood (%): 57.05 ± 2.49%
  Rate of change of lymphocytes in blood after administration (%): −55.15 ± 3.32^****$$$$& %
Blood lymphocytes; 3.0 mg/kg single oral, −0.5 h (before administration)
  Percentage of lymphocytes in white blood cells in a unit volume of blood (%): 62.35 ± 2.26%
S1P1 receptor
  EC50: < 10 nM

## CC(C)Oc1ccc(-c2nc(-c3cccc4c3C[C@@H]3CC(=O)N(CCO)[C@H]43)no2)cc1C#N [Crystal Form A]
[3]; [8]
  Appearance: White powder
  Content (%): 101.4%
  Total Impurity (%): 0.31%
[3]; [9]
  Appearance: White powder
  Content (%): 98.8%
  Total Impurity (%): 0.34%
[3]; [10]
  Appearance: White powder
  Content (%): 101.8%
  Total Impurity (%): 0.32%
[3]; 40° C./75% humidity (open), up to 3 months vs day 0
  amount of total impurity (change over the test): did not increase
[3]; Initial, 0 month
  Appearance: White powder
  Content (%): 101.6%
  Total Impurity (%): 0.33%

## CC(C)Oc1ccc(-c2nc(-c3cccc4c3CC[C@@H]4NCCO)no2)cc1C#N [Ozanimod, reference compound]
[1]
  clearance: 46.3 mL/min/kg
  bioavailability: 41.6%
  AUC: 1.12 µM·h
  half-life: 5.24 h
[2]; [5]
  Injury area (cm^2): 4.76 ± 0.33 cm^2
  Ulcer area (cm^2): 1.12 ± 0.31 cm^2
[2]; [11]
  Injury area (cm^2): 4.60 ± 0.71 cm^2
  Ulcer area (cm^2): 1.36 ± 0.48 cm^2
[2]; 0.3 mg/kg
  Inflammation score: 3.71 ± 0.42
  Total injury score: 6.29 ± 0.75
  Ulcer score: 2.57 ± 0.37
[2]; 1.0 mg/kg
  Inflammation score: 3.43 ± 0.30
  Total injury score: 6.00 ± 0.58
  Ulcer score: 2.57 ± 0.30
Blood lymphocytes; 1.0 mg/kg single oral, 4 h
  Percentage of lymphocytes in white blood cells in a unit volume of blood (%): 44.53 ± 3.75 %
  Rate of change of lymphocytes in blood after administration (%): −71.79 ± 2.51 %
Blood lymphocytes; 1.0 mg/kg single oral, 8 h
  maximum decreasing rate of the number of blood lymphocytes: 84.39%
  Percentage of lymphocytes in white blood cells in a unit volume of blood (%): 35.69 ± 2.47^****$ %
  Rate of change of lymphocytes in blood after administration (%): −84.39 ± 1.16 %
Blood lymphocytes; 1.0 mg/kg single oral, 24 h
  blood lymphocyte decreasing rate: 47.26%
  Percentage of lymphocytes in white blood cells in a unit volume of blood (%): 58.63 ± 2.17%
  Rate of change of lymphocytes in blood after administration (%): −47.26 ± 4.34 %
Blood lymphocytes; [7]
  Percentage of lymphocytes in white blood cells in a unit volume of blood (%): 58.67 ± 1.61%

## C[C@]12C=CC(=O)C=C1CC[C@@H]1[C@@H]2[C@@H](O)C[C@@]2(C)[C@H]1CC[C@]2(O)C(=O)CO [Prednisolone]
[2]; [12]
  Injury area (cm^2): 4.45 ± 0.82 cm^2
  Ulcer area (cm^2): 1.58 ± 0.53 cm^2
[2]; 10 mg/kg, compared to the model group
  colon ulcers (dissection at the end of the experiment): not reduced
[2]; 10 mg/kg
  Inflammation score: 3.00 ± 0.33
  Total injury score: 5.00 ± 0.63
  Ulcer score: 2.00 ± 0.38
